For the experiment, the system named is HCT 116 cells. Description: Viability assay in HCT 116 cells (CellTiter-Glo Luminescent Cell Viability Assay). It is filed as cell-based. Particulars: HCT 116 human colon carcinoma cells, 5 days (120 h) incubation, ATP luminescence. How it is done: Viability Assay in HCT 116 Cells
A viability assay was performed using the CellTiter-Glo® Luminescent Cell Viability Assay (see Promega Corporation's Technical Bulletin No. 288, pp. 1-11 [revised February 2004] which is hereby incorporated by reference in its entirety). This assay is a homogeneous method of determining the number of viable cells in culture based on quantitation of the ATP present, an indicator of metabolically active cells. The assay is designed for use with multiwell formats, making it ideal for automated high-throughput screening (HTS), cell proliferation and cytotoxicity assays. The homogenous assay procedure involves adding a single reagent (containing luciferase, luciferan substrate, and buffer) directly to cells cultured in serum-supplemented medium. Cell washing, removal of medium and multiple pipetting steps are not required. The system detects as few as 15 cells/well in a 384-well format in 10 minutes after adding reagent and mixing.
The homogeneous “add-mix-measure” format results in cell lysis and generation of a luminescent signal proportional to the amount of ATP present. The amount of ATP is directly proportional to the number of cells present in culture. The above-referenced assay generates a “glow-type” luminescent signal, produced by the luciferase reaction, which has a half-life generally greater than five hours, depending on cell type and medium used. The extended half-life eliminates the need to use reagent injectors and provides flexibility for continuous or batch mode processing of multiple plates. The unique homogeneous format avoids errors that may be introduced by other ATP measurement methods that require multiple steps.
HCT 116 cells (human colon carcinoma, ATCC-No. CCl-247) were cultivated in RPMI 1640 medium with GlutaMAX™ I (cell culture media that contains L-Alanyl-L-Glutamine [a stabilized a form/source of L-Glutamine] from Invitrogen, Cat-No. 61870-010), 2.5% Fetal Calf Serum (FCS, Sigma Cat-No. F4135 (FBS)); 100 Units/ml penicillin/100 μg/ml streptomycin (=Pen/Strep from Invitrogen Cat. No. 15140). For the assay the cells were seeded in 384 well plates, 1000 cells per well, in the same medium. The next day the test compounds were added in various concentrations ranging from 30 μM to 0.0015 μM (10 concentrations, 1:3 diluted). After 5 days the viability assay was done according to the instructions of the manufacturer. In brief: the cell-plate was equilibrated to room temperature for approximately 30 minutes and then reagent (containing luciferase, luciferan substrate, and buffer) was added. The contents were carefully mixed for 15 minutes to induce cell lysis. After 45 minutes the luminescent signal was measured in Victor 2, (scanning multiwell spectrophotometer, Wallac).
Medium: RPMI 1640 with cell culture media containing L-Alanyl-L-Glutamine [GlutaMAX™ I (Invitrogen, Cat-No. 61870)], 5% FCS (Sigma Cat.-No. F4135), Pen/Strep (Invitrogen, Cat No. 15140).
HCT116 (ATCC-No. CCl-247): 1000 cells in 60 μl per well of 384 well plate (Greiner 781098, μClear-plate white)
After seeding incubate plates 24 h at 37° C., 5% CO2
2nd. Day: Induction (Treatment with Compounds, 10 Concentrations):
In order to achieve a final concentration of 30 μM as highest concentration 3.5 μl of 10 mM compound stock solution were added directly to 163 μl media. Then step (d) of the dilution procedure described below, was followed.
In order to achieve the second highest to the lowest concentrations, a serial dilution with dilution steps of 1:3 was followed according to the procedure (a-d) as described here below:
(a) for the second highest concentration add 10 μl of 10 mM stock solution of compound to 20 μl dimethylsulfoxide (DMSO)
(b) dilute 8×1:3 (always 10 μl to 20 μl DMSO) in this DMSO dilution row (results in 9 wells with concentrations from 3333.3 μM to 0.51 μM)
(c) dilute each concentration 1: 47.6 (3.5 μl compound dilution to 163 μl media)
(d) add 10 μl of every concentration to 60 μl media in the cell plate […]

As a reminder, the IC50 is the concentration that gives 50% inhibition. Low readings indicate inhibition by little substance, high ones a need for much substance.

On to `CC1(C)C(=O)Nc2cc3[nH]c(-c4n[nH]c5c4CCCC5)nc3cc21` [Example 7, 7,7-Dimethyl-2-(4,5,6,7-tetrahydro-1H-indazol-3-yl)-5,7-dihydro-3H-imidazo[4,5-f]indol-6-one], for which the IC50 lay in the range of 100 to 2000 nM.
Consider `CN1C(=O)C(C)(C)c2cc3nc(-c4n[nH]c5c4CCC5)[nH]c3cc21` [Example 2, 5,7,7-Trimethyl-2-(1,4,5,6-tetrahydro-cyclopentapyrazol-3-yl)-5,7-dihydro-3H-imidazo[4,5-f]indol-6-one], for which the IC50 was found to be 430 nM.
For `CC1(C)C(=O)Nc2cc3[nH]c(-c4n[nH]c5c4CCC5)nc3cc21` [Example 1, 7,7-Dimethyl-2-(1,4,5,6-tetrahydro-cyclopentapyrazol-3-yl)-5,7-dihydro-3H-imidazo[4,5-f]indol-6-one] the value was 100 to 2000 nM.
On to `CCN1C(=O)C(C)(C)c2cc3nc(-c4n[nH]c5c4CSCC5)[nH]c3cc21` [Example 26, 5-Ethyl-7,7-dimethyl-2-(1,4,6,7-tetrahydro-thiopyrano[4,3-c]pyrazol-3-yl)-5,7-dihydro-3H-imidazo[4,5-f]indol-6-one], for which the IC50 lay in the range of 100 to 2000 nM.
Turning to `CC(C)N1C(=O)C(C)(C)c2cc3nc(-c4n[nH]c5c4CN(C(=O)Cc4cccs4)C5)[nH]c3cc21` [Example 24, 5-Isopropyl-7,7-dimethyl-2-[5-(2-thiophen-2-yl-acetyl)-1,4,5,6-tetrahydro-pyrrolo[3,4-c]pyrazol-3-yl]-5,7-dihydro-3H-imidazo[4,5-f]indol-6-one], the IC50 was determined as 741 nM.
In turn, `CCCN1C(=O)C(C)(C)c2cc3nc(-c4n[nH]c5c4CCC5)[nH]c3cc21` [Example 4, 7,7-Dimethyl-5-propyl-2-(1,4,5,6-tetrahydro-cyclopentapyrazol-3-yl)-5,7-dihydro-3H-imidazo[4,5-f]indol-6-one] gave a concentration for half-maximal inhibition (IC50) of 224 nM.
Compound `CCN1C(=O)C(C)(C)c2cc3nc(-c4n[nH]c5c4CN(Cc4ccccc4)CC5)[nH]c3cc21` [Example 13, 2-(5-Benzyl-4,5,6,7-tetrahydro-1H-pyrazolo[4,3-c]pyridin-3-yl)-5-ethyl-7,7-dimethyl-5,7-dihydro-3H-imidazo[4,5-f]indol-6-one] yielded an IC50 of 100 to 2000 nM.
For `CCN1C(=O)C(C)(C)c2cc3nc(-c4n[nH]c5c4CCCC5)[nH]c3cc21` [Example 8, 5-Ethyl-7,7-dimethyl-2-(4,5,6,7-tetrahydro-1H-indazol-3-yl)-5,7-dihydro-3H-imidazo[4,5-f]indol-6-one] the value was 100 to 2000 nM.
The figure for `CC(C)N1C(=O)C(C)(C)c2cc3nc(-c4n[nH]c5c4CSC5)[nH]c3cc21` [Example 28, 2-(4,6-Dihydro-1H-thieno[3,4-c]pyrazol-3-yl)-5-isopropyl-7,7-dimethyl-5,7-dihydro-3H-imidazo[4,5-f]indol-6-one] is 338 nM; for `CCN1C(=O)C(C)(C)c2cc3nc(-c4n[nH]c5c4CN(S(=O)(=O)c4ccc(F)cc4)C5)[nH]c3cc21` [Example 25, 5-Ethyl-2-[5-(4-fluoro-benzenesulfonyl)-1,4,5,6-tetrahydro-pyrrolo[3,4-c]pyrazol-3-yl]-7,7-dimethyl-5,7-dihydro-3H-imidazo[4,5-f]indol-6-one] it is 100 to 2000 nM.
In turn, `CCN1C(=O)C(C)(C)c2cc3nc(-c4n[nH]c5c4CN(C(=O)Cc4cccs4)C5)[nH]c3cc21` [Example 23, 5-Ethyl-7,7-dimethyl-2-[5-(2-thiophen-2-yl-acetyl)-1,4,5,6-tetrahydro-pyrrolo[3,4-c]pyrazol-3-yl]-5,7-dihydro-3H-imidazo[4,5-f]indol-6-one] yielded a concentration for half-maximal inhibition (IC50) of 100 to 2000 nM.
For `CCN1C(=O)C(C)(C)c2cc3nc(-c4n[nH]c5c4CN(C(=O)Cc4ccc(F)cc4)CC5)[nH]c3cc21` [Example 15, 5-Ethyl-2-{5-[2-(4-fluoro-phenyl)-acetyl]-4,5,6,7-tetrahydro-1H-pyrazolo[4,3-c]pyridin-3-yl}-7,7-dimethyl-5,7-dihydro-3H-imidazo[4,5-f]indol-6-one] the value was 1500 nM.

The record behind these values is patent US20060235013A1, “Tricyclic azole derivatives” (priority 2005, published 2006).
